Assay results published in the supplement of paper PMC10307832.

Experiments:
Assay in all cases: relative viability (nuclei count vs DMSO), 5 days (fraction); higher = more cells survive
[1] = test system: 201T
Method in brief: (§1)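 Relative viability is defined as nuclei in treated wells over nuclei in vehicle wells. Duplicate plates were run and medians reported. Lung cancer cell lines in 1536-well plates were dosed by pin tool one day after seeding, with one drug or with a fixed anchor-drug dose plus five library-drug doses (not always all listed) in √10 steps, and nuclei were counted after 5 days.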

[2] = test system: ABC-1
Method in brief: as §1

[3] = test system: EMC-BAC-2
Method in brief: as §1

[4] = test system: EPLC-272H
Method in brief: as §1

[5] = test system: HCC-78
Method in brief: as §1

[6] = test system: LCLC-103H
Method in brief: as §1

[7] = test system: LOU-NH91
Method in brief: as §1

[8] = test system: NCI-H1395
Method in brief: as §1

[9] = test system: NCI-H1437
Method in brief: as §1

[10] = test system: NCI-H1651
Method in brief: as §1

[11] = test system: NCI-H1734
Method in brief: as §1

[12] = test system: NCI-H1793
Method in brief: as §1

[13] = test system: NCI-H1915
Method in brief: as §1

[14] = test system: NCI-H1975
Method in brief: as §1

[15] = test system: NCI-H2023
Method in brief: as §1

[16] = test system: NCI-H23
Method in brief: as §1

[17] = test system: NCI-H2405
Method in brief: as §1

[18] = test system: NCI-H647
Method in brief: as §1

[19] = test system: NCI-H661
Method in brief: as §1

[20] = test system: RERF-LC-KJ
Method in brief: as §1

[21] = test system: SK-LU-1
Method in brief: as §1

[22] = test system: UMC-11
Method in brief: as §1

SMILES: Cc1cnc(-c2cnc(NCCNc3ccc(C#N)cn3)nc2-c2ccc(Cl)cc2Cl)[nH]1 + COc1cc2c(Oc3ccc(NC(=O)C4(C(=O)Nc5ccc(F)cc5)CC4)cc3F)ccnc2cc1OCCCN1CCOCC1 [Foretinib] (partner 0.25 µM)
- relative viability ([1]; first compound 0.08 µM): 1.19
- relative viability ([1]; first compound 0.253 µM): 0.807
- relative viability ([1]; first compound 0.8 µM): 1.16
- relative viability ([1]; first compound 2.53 µM): 1.14
- relative viability ([2]; first compound 0.08 µM): 1.32
- relative viability ([2]; first compound 0.253 µM): 1.31
- relative viability ([2]; first compound 0.8 µM): 1.34
- relative viability ([2]; first compound 2.53 µM): 1.2
- relative viability ([3]; first compound 0.08 µM): 1.1
- relative viability ([3]; first compound 0.253 µM): 0.964
- relative viability ([3]; first compound 0.8 µM): 1.02
- relative viability ([3]; first compound 2.53 µM): 0.939
- relative viability ([4]; first compound 0.08 µM): 0.737
- relative viability ([4]; first compound 0.253 µM): 0.617
- relative viability ([4]; first compound 0.8 µM): 0.692
- relative viability ([4]; first compound 2.53 µM): 0.747
- relative viability ([5]; first compound 0.08 µM): 0.471
- relative viability ([5]; first compound 0.253 µM): 0.488
- relative viability ([5]; first compound 0.8 µM): 0.525
- relative viability ([5]; first compound 2.53 µM): 0.568
- relative viability ([6]; first compound 0.08 µM): 0.751
- relative viability ([6]; first compound 0.253 µM): 0.734
- relative viability ([6]; first compound 0.8 µM): 0.745
- relative viability ([6]; first compound 2.53 µM): 0.79
- relative viability ([7]; first compound 0.08 µM): 0.975
- relative viability ([7]; first compound 0.253 µM): 0.901
- relative viability ([7]; first compound 0.8 µM): 0.96
- relative viability ([7]; first compound 2.53 µM): 0.942
- relative viability ([8]; first compound 0.08 µM): 1.03
- relative viability ([8]; first compound 0.253 µM): 0.953
- relative viability ([8]; first compound 0.8 µM): 1.02
- relative viability ([8]; first compound 2.53 µM): 0.956
- relative viability ([9]; first compound 0.08 µM): 1.18
- relative viability ([9]; first compound 0.253 µM): 1.25
- relative viability ([9]; first compound 0.8 µM): 1.24
- relative viability ([9]; first compound 2.53 µM): 1.25
- relative viability ([10]; first compound 0.08 µM): 0.728
- relative viability ([10]; first compound 0.253 µM): 0.777
- relative viability ([10]; first compound 0.8 µM): 0.785
- relative viability ([10]; first compound 2.53 µM): 0.883
- relative viability ([11]; first compound 0.08 µM): 0.926
- relative viability ([11]; first compound 0.253 µM): 0.762
- relative viability ([11]; first compound 0.8 µM): 0.834
- relative viability ([11]; first compound 2.53 µM): 0.83
- relative viability ([12]; first compound 0.08 µM): 0.807
- relative viability ([12]; first compound 0.253 µM): 0.545
- relative viability ([12]; first compound 0.8 µM): 0.684
- relative viability ([12]; first compound 2.53 µM): 0.723
- relative viability ([13]; first compound 0.08 µM): 1.11
- relative viability ([13]; first compound 0.253 µM): 0.844
- relative viability ([13]; first compound 0.8 µM): 1.1
- relative viability ([13]; first compound 2.53 µM): 1.07
- relative viability ([14]; first compound 0.08 µM): 0.928
- relative viability ([14]; first compound 0.253 µM): 0.911
- relative viability ([14]; first compound 0.8 µM): 0.771
- relative viability ([14]; first compound 2.53 µM): 0.573
- relative viability ([15]; first compound 0.08 µM): 0.709
- relative viability ([15]; first compound 0.8 µM): 0.938
- relative viability ([15]; first compound 2.53 µM): 1.18
- relative viability ([16]; first compound 0.08 µM): 0.938
- relative viability ([16]; first compound 0.253 µM): 1
- relative viability ([16]; first compound 0.8 µM): 0.983
- relative viability ([16]; first compound 2.53 µM): 1
- relative viability ([17]; first compound 0.08 µM): 1.04
- relative viability ([17]; first compound 0.253 µM): 0.974
- relative viability ([17]; first compound 0.8 µM): 1.05
- relative viability ([17]; first compound 2.53 µM): 0.845
- relative viability ([18]; first compound 0.08 µM): 1.35
- relative viability ([18]; first compound 0.253 µM): 1.03
- relative viability ([18]; first compound 0.8 µM): 0.938
- relative viability ([18]; first compound 2.53 µM): 1.15
- relative viability ([19]; first compound 0.08 µM): 1.05
- relative viability ([19]; first compound 0.253 µM): 0.99
- relative viability ([19]; first compound 0.8 µM): 1.01
- relative viability ([19]; first compound 2.53 µM): 0.894
- relative viability ([20]; first compound 0.08 µM): 0.906
- relative viability ([20]; first compound 0.253 µM): 0.796
- relative viability ([20]; first compound 0.8 µM): 0.826
- relative viability ([20]; first compound 2.53 µM): 0.832
- relative viability ([21]; first compound 0.08 µM): 0.865
- relative viability ([21]; first compound 0.253 µM): 0.833
- relative viability ([21]; first compound 0.8 µM): 0.983
- relative viability ([21]; first compound 2.53 µM): 1.03
- relative viability ([22]; first compound 0.08 µM): 0.986
- relative viability ([22]; first compound 0.253 µM): 0.999
- relative viability ([22]; first compound 0.8 µM): 1.11
- relative viability ([22]; first compound 2.53 µM): 1
